In patent US8394858B2, “Cyclohexane derivatives and uses thereof” (Novartis AG, priority 2009, dated 2013):

target: T1, human acetyl-CoA carboxylase 2 (ACC2) (Homo sapiens, UniProt O00763); test: Acetyl-CoA carboxylase enzyme assay (malonyl-CoA formation by LC/MS/MS); format: biochemical; details: recombinant human ACC2 (amino acids 144 to 2458), 50 μM acetyl-CoA, 120 μM ATP, 2 mM KHCO3
T1 construct: The cDNA encoding amino acids 144 to 2458 of human acetyl-CoA carboxylase 2; made in house; host or cells: Sf9 insect cells (baculovirus, pFastBac1)
T1 sequence (O00763 144-2458): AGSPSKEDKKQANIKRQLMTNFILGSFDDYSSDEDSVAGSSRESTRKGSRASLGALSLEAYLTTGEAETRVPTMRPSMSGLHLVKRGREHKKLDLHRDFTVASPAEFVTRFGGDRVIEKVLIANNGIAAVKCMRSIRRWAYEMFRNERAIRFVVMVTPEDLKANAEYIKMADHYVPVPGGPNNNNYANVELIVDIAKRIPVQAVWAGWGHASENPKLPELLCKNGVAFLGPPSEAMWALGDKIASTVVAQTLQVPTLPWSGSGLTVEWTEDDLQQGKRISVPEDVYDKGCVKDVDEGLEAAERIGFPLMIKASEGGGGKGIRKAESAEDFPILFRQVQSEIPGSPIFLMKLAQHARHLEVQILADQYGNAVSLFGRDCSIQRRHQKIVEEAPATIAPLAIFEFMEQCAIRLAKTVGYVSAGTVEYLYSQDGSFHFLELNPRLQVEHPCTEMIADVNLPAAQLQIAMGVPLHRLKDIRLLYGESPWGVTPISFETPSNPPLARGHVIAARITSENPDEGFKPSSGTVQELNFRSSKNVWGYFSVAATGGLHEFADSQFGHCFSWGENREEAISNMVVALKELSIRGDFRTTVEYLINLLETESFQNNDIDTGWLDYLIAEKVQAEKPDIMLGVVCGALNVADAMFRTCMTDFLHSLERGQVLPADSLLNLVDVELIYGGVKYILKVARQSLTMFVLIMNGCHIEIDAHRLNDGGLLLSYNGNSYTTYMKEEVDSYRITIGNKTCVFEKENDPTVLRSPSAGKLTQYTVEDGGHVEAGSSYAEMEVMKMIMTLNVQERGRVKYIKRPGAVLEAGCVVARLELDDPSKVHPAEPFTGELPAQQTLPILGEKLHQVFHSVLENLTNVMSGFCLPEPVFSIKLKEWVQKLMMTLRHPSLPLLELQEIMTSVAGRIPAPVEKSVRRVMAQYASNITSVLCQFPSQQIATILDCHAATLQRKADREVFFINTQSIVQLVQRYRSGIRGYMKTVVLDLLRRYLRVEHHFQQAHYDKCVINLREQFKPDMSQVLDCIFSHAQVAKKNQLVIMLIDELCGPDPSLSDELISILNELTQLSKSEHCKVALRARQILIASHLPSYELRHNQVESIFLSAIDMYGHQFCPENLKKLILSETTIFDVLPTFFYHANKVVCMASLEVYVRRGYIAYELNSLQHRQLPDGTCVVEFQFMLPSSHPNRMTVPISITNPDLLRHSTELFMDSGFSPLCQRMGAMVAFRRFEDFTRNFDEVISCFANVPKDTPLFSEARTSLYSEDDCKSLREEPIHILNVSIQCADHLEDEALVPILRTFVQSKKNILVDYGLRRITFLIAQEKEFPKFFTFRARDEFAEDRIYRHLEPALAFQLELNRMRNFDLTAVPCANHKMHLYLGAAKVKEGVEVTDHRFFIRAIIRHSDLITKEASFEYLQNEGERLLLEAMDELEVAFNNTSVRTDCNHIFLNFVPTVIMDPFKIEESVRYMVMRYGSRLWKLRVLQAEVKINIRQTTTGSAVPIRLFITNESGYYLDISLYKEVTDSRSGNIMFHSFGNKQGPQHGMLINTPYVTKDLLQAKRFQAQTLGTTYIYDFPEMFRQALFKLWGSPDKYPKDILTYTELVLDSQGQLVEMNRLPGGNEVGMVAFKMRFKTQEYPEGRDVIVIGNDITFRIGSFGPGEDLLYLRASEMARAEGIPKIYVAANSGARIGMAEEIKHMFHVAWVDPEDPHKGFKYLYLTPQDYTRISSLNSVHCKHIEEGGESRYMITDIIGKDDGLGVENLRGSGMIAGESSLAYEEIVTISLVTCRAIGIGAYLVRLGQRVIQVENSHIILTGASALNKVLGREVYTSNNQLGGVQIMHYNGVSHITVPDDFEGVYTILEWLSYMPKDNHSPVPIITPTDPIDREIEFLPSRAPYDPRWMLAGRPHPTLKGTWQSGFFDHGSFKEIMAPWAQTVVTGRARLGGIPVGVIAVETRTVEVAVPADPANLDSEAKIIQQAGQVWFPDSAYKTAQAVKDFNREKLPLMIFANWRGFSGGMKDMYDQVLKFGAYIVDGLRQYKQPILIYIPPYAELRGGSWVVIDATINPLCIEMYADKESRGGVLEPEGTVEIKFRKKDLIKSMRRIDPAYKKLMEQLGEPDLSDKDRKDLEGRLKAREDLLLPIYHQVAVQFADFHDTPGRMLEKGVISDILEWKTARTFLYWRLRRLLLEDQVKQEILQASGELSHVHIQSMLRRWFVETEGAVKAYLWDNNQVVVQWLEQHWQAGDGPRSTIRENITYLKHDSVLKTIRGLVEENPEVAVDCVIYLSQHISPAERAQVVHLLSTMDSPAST
Text: The cDNA encoding amino acids 144 to 2458 of human acetyl-CoA carboxylase 2 (ACC2, GenBank Accession # NM_001093) was cloned into the SalI and NotI sites of pFastBac1 (Invitrogen; Carlsbad, Calif.). The resulting plasmid was used to generate a recombinant ACC2 baculovirus that was amplified and titered according to the protocols in the Bac-to-Bac baculovirus expression system manual (Invitrogen). The titered virus was used to infect Sf9 cells grown in Ex-Cell 420 serum-free medium (JRH Biosciences; Lenexa, Kans.). At 48 hours post-infection, the cells were harvested and stored at −80° C. until purification. ACC2 was purified using ammonium sulfate precipitation and anion exchange chromatography.
The enzymatic assay was run as follows: 30 μL of reaction buffer (100 mM HEPES pH 7.5, 20 mM MgCl2, 20 mM potassium citrate, 2 mM DTT) was added to a 384-well microtiter plate followed by 2 μL of the test compound (or 100% DMSO control). ACC2 protein (10 μL of a 50 nM working solution) was added to plate, which was incubated at room temperature for 15 minutes. A 30 μL addition of substrate solution (50 μM acetyl-CoA, 120 μM ATP, 2 mM KHCO3) was used to initiate the reactions which were quenched with 6% acetic acid (40 μL). ACC catalyzed malonyl-CoA formation was detected by LC/MS/MS using a Cohesive Technologies LX Series multiplex LC/MS/MS system configured with four binary pumps (Agilent Technologies; Palo Alto, Calif.), a dual arm autosampler (Leap Technologies; Cary, N.C.), and one Quattro Micro triple quadrupole mass spectrometer (Waters, Milford, Mass.), all run by Aria Software version 1.5 (Cohesive Technologies; Franklin, Mass.). Four samples were injected (20 μL) onto four Phenosphere NEXT C18 30×2 mm 5 μm columns (Phenomenex; Torrance, Calif.), eluted by four separate pumps, running identical gradients, through a column switching manifold with the one outlet fitted to the electrospray (ESI) source. Malonyl-CoA was eluted with 5 mM ammonium acetate, pH 4.5 (Buffer A) and 100% acetonitrile (Buffer B) via a step gradient. Argon was used as the collision gas and the following species were monitored via MRM detection: malonyl-CoA (853.8>346.9), internal standard (A: [^13C3]-malonyl-CoA, 857>350). The lower limit of detection is 0.3 uM for malonyl-CoA in this assay.

Row | Compound | IC50 [µM]
1 | O=C(N[C@@H](c1ccccc1)C(F)(F)F)[C@H]1CC[C@H](NS(=O)(=O)c2ccc(C(F)(F)F)cc2)CC1 [Example 72] | 0.094
2 | C[C@H](O)[C@@H](NC(=O)[C@H]1CC[C@H](NS(=O)(=O)c2ccc(C(F)(F)F)cc2)CC1)c1ccccc1 [Example 171, (1r,4S)—N-((1S,2R)-2-Hydroxy-1-phenylpropyl)-4-(4-(trifluoromethyl)phenylsulfonamido)cyclohexancarboxamide] | 0.09
3 | C[C@@H](NC(=O)[C@H]1CC[C@H](NS(=O)(=O)c2ccc(-c3ccc(CN4CCOCC4)cc3)cc2)CC1)c1ccc(F)cc1 [Example 359] | 0.052
4 | CC(C)(O)[C@@H](NC(=O)[C@H]1CC[C@H](NS(=O)(=O)c2ccc(-c3ccccc3)cc2)CC1)c1ccccc1 [Example 395] | 0.01
5 | O=C(O)CCc1ccc(-c2ccc(S(=O)(=O)N[C@H]3CC[C@H](C(=O)N4CCN(c5ccccn5)CC4c4ccccc4)CC3)cc2)cc1 (some centres unmarked) [Example 414] | 0.01
6 | O=C1CN(C(=O)[C@H]2CC[C@H](NS(=O)(=O)c3ccc(-c4ccccc4)cc3)CC2)C(c2ccccc2)CN1 (some centres unmarked) [Example 428] | 0.77

More lines, in order of falling IC50, values ahead:

Row | IC50 [µM] | Compound
7 | 0.09 | O=C(O)CCc1ccc(-c2ccc(S(=O)(=O)N[C@H]3CC[C@H](C(=O)N4CCC[C@@H]4c4ccc(F)cc4)CC3)cc2)cc1 [Example 410]
8 | 0.04 | CC(C)(O)[C@@H](NC(=O)[C@]1(C)CC[C@@H](NS(=O)(=O)c2ccc(C(F)(F)F)cc2)CC1)c1ccccc1 [Example 448, (1r,4S)—N—((S)-2-Hydroxy-2-methyl-1-phenylpropyl)-1-methyl-4-(4-(trifluoromethyl)phenylsulfonamido)cyclohexanecarboxamide]
9 | 0.025 | CC(C)(O)[C@@H](NC(=O)[C@H]1CC[C@H](NS(=O)(=O)c2ccc(C(F)(F)F)cc2)CC1)c1ccccc1 [Example 1, (1r,4S)—N—((S)-2-Hydroxy-2-methyl-1-phenylpropyl)-4-(4-(trifluoromethyl)phenylsulfonamido)cyclohexanecarboxamide]
10 | 0.025 | Cc1[nH]cnc1-c1ccc(S(=O)(=O)N[C@H]2CC[C@H](C(=O)N[C@H](C)c3ccc(F)cc3)CC2)cc1 [Example 339]
11 | 0.025 | O=C(O)CCc1ccc(-c2ccc(S(=O)(=O)N[C@H]3CC[C@H](C(=O)N4CCOC[C@@H]4c4ccccc4)CC3)cc2)cc1 [Example 419]
12 | 0.01 | C[C@@H](NC(=O)[C@H]1CC[C@H](NS(=O)(=O)c2ccc(-c3ccc(CNCC(=O)O)cc3)cc2)CC1)c1ccc(F)cc1 [Example 370]
13 | 0.01 | C[C@@H](NC(=O)[C@H]1CC[C@H](NS(=O)(=O)c2ccc(-c3ccc(CCN)cc3)cc2)CC1)c1ccc(F)cc1 [Example 378]
14 | 0.01 | C[C@@H](NC(=O)[C@H]1CC[C@H](NS(=O)(=O)c2ccc(-c3ccc(OCCN4CCOCC4)cc3)cc2)CC1)c1ccc(F)cc1 [Example 385]
